Residue numbers refer to the chain shown, from its start.
Tests used:
Format in all cases: binding
DC-SIGN CRD F313A = target: T1, DC-SIGN CRD F313A (Homo sapiens, UniProt Q9NNX6, F313A); experiment: 1H-15N HSQC NMR titration (CSP fitting)
T1 construct: acids 253-404 of DC-SIGN; His-tag (N); made in house
T1 sequence (Q9NNX6 253-404 F313A): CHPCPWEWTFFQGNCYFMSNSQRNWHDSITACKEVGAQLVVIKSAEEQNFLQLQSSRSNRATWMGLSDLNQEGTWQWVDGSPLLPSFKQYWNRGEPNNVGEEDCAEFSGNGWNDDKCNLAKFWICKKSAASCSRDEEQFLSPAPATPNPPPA
Description: (§1) 1H-15N HSQC NMR. 1H-15N HSQC NMR spectra were collected with 256 increments in the nitrogen and 24 scans per increment and 2048 points in the direct dimension. The relaxation delay d1 was set to 1.0 s. The W5 WATERGATE pulse sequence was used for solvent suppression.3, 4 Experiments were performed at a CRD concentration of 200 μM in 20 mM MES, 40 mM NaCl, 10 mM CaCl2 (pH 6.0) supplemented with 10% D 2O and, if applicable, varying concentrations of ligands. Samples of apo DC -SIGN CRD were prepared as described for 1H-13C HSQC NMR experiments. A previously published resonance assignment of DC-SIGN CRD was transferred to the nearest neighbor in a reference spectrum recorded without ligand.5 Unassigned, overlapping or disappearing peaks were not assigned.
(§2) CSPs induced by mutations or ligands were calculated as previously described according to […]
(§3) The empirical weighing factor a was set to 0.15 for all calculations.
(§4) Dissociation constants (K Ds) were determined in titration experiments at five ligand concentratio ns […]
(§5) in the fast exchange regime were used for the fitting procedure via equation 4 in a global two - […]
(§6) with CSP max corresponding to the CSP values upon saturation and the bound protein fraction p b […]
(§7) CHESPA was performed as previously described .7 The chemical shift vector between apo and holo wildtype DC -SIGN CRD was used as reference perturbation to calculate the vector product to […]

DC-SIGN CRD F359L = target: T2, DC-SIGN CRD F359L (Homo sapiens, UniProt Q9NNX6, F359L); experiment: 1H-15N HSQC NMR titration (CSP fitting)
T2 construct: acids 253-404 of DC-SIGN; His-tag (N); made in house
T2 sequence (Q9NNX6 253-404 F359L): T1 sequence (Q9NNX6 253-404 F313A) with A61F, F107L
Description: as §1, §2, §3, §4, §5, §6, §7

DC-SIGN CRD I376V = target: T3, DC-SIGN CRD I376V (Homo sapiens, UniProt Q9NNX6, I376V); experiment: 1H-15N HSQC NMR titration (CSP fitting)
T3 construct: acids 253-404 of DC-SIGN; His-tag (N); made in house
T3 sequence (Q9NNX6 253-404 I376V limits assumed): T1 sequence (Q9NNX6 253-404 F313A) with A61F, I124V
Description: as §1, §2, §3, §4, §5, §6, §7

DC-SIGN CRD M270F = target: T4, DC-SIGN CRD M270F (Homo sapiens, UniProt Q9NNX6, M270F); experiment: 1H-15N HSQC NMR titration (CSP fitting)
T4 construct: acids 253-404 of DC-SIGN; His-tag (N); made in house
T4 sequence (Q9NNX6 253-404 M270F): T1 sequence (Q9NNX6 253-404 F313A) with M18F, A61F
Description: as §1, §2, §3, §4, §5, §6, §7

DC-SIGN CRD Q323A = target: T5, DC-SIGN CRD Q323A (Homo sapiens, UniProt Q9NNX6, Q323A); experiment: 1H-15N HSQC NMR titration (CSP fitting)
T5 construct: acids 253-404 of DC-SIGN; His-tag (N); made in house
T5 sequence (Q9NNX6 253-404 Q323A limits assumed): T1 sequence (Q9NNX6 253-404 F313A) with A61F, Q71A
Description: as §1, §2, §3, §4, §5, §6, §7

DC-SIGN CRD T314A = target: T6, DC-SIGN CRD T314A (Homo sapiens, UniProt Q9NNX6, T314A); experiment: 1H-15N HSQC NMR titration (CSP fitting)
T6 construct: acids 253-404 of DC-SIGN; His-tag (N); made in house
T6 sequence (Q9NNX6 253-404 T314A): T1 sequence (Q9NNX6 253-404 F313A) with A61F, T62A
Description: as §1, §2, §3, §4, §5, §6, §7

DC-SIGN CRD W364F = target: T7, DC-SIGN CRD W364F (Homo sapiens, UniProt Q9NNX6, W364F); experiment: 1H-15N HSQC NMR titration (CSP fitting)
T7 construct: acids 253-404 of DC-SIGN; His-tag (N); made in house
T7 sequence (Q9NNX6 253-404 W364F): T1 sequence (Q9NNX6 253-404 F313A) with A61F, W112F
Description: as §1, §2, §3, §4, §5, §6, §7

DC-SIGN CRD wildtype = target: T8, DC-SIGN CRD wildtype (Homo sapiens, UniProt Q9NNX6); experiment: 1H-15N HSQC NMR titration (CSP fitting)
T8 construct: acids 253-404 of DC-SIGN; His-tag (N); made in house
T8 sequence (Q9NNX6 253-404): T1 sequence (Q9NNX6 253-404 F313A) with A61F
Description: as §1, §2, §3, §4, §5, §6, §7

DC-SIGN ECD T314A = target: T9, DC-SIGN ECD T314A (Homo sapiens, UniProt Q9NNX6, T314A); experiment: Plate-based horseradish peroxidase assay; settings: 1 µg mL-1 HRP, 25 mM CaCl2
T9 construct: acids 64 -404 of DC -SIGN; made in house
T9 sequence (Q9NNX6 64-404 T314A): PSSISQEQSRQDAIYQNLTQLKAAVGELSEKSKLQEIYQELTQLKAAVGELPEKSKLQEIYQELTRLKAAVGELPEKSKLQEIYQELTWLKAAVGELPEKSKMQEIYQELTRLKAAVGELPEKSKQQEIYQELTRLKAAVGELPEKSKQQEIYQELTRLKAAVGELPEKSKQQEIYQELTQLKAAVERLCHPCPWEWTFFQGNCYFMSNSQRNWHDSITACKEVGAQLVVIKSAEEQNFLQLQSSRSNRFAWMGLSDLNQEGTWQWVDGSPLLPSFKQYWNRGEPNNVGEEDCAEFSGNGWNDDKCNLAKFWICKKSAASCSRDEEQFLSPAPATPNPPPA
Description: Measurements were done on a Enspire Multimode Plate Reader (PerkinElmer). GraphPad Prism was used for all data processing and analysis.
CaCl2 titration. 100 µg mL-1 DC-SIGN ECD were immobilized in immobilization buffer (25 mM HEPES, 150 mM NaCl, 25 mM CaCl 2, pH 7.4) overnight at 4°C on transparent Nunc Maxisorp 96-well plates (Thermo Fisher). Protein solution was removed, and plates were washed three times with immobilization buffer and then blocked for 2 hours at 4°C with blocking buffer (25 mM HEPES, 150 mM NaCl, 25 mM CaCl 2, 2% BSA, 0.01% Tween -20). Plates were washed twice with 25 mM HEPES, 150 mM NaCl, 5 mM EDTA, pH 7.4 and twice with 25 mM HEPES, 150 mM NaCl, pH 7.4 to remove residual Ca 2+. To titrate Ca2+, CaCl2 in 25 mM HEPES, 150 mM NaCl, pH 7.4 was serially diluted on the plate at a constant HRP concentration of 1 µg mL-1 and then incubated at RT for 2 hours. Following incubation, plates were washed three times with 25 mM HEPES, 150 mM NaCl, pH 7.4 and bound HRP was detected using a TMB substrate kit (Thermo Fisher) and 0.18 M H2SO4 according to manufacturer’s instructions.
HRP titration. Immobilization and blocking were done as described above. After blocking, plates were washed three times with immobilization buffer. HRP in immobilization buffer was serially diluted on the plate at a constant concentration CaCl2 concentration of 25 mM and then incubated
at RT for 2 hours. Following incubation, plates were washed three times with immobilization buffer and HRP was detected as described above.
Immobilization and blocking were done as described above. After blocking, plates were washed three times with immobilization buffer. containing 1 µg mL-1 HRP was serially diluted on the plate and then incubated at RT for 2 hours.
Following incubation, plates were washed three times with immobilization buffer and HRP was detected as described above.
All conditions were measured in technical triplicates, averaged and normalized to the control well
IC50 and EC50 values and hill
slopes (nH) were obtained in a four-parameter fit according to equation (1).
Y = bottom + top − bottom (1)
With bottom and top representing the minimal and maximal response plateaus, respectively, Y as the observed response and X the logarithmic concentration of the ligand .

In the case of `OC[C@H]1OC(O)[C@@H](O)[C@@H](O)[C@@H]1O` (stereo partly drawn) [mannose], the Kd (DC-SIGN CRD F313A) is reported as 6 ± 0.5 mM, the Kd (DC-SIGN CRD F359L) is reported as 8.2 ± 0.8 mM and the Kd (DC-SIGN CRD I376V) is reported as 3.4 ± 0.2 mM. The Kd (DC-SIGN CRD M270F) was 2.9 ± 0.4 mM, the Kd (DC-SIGN CRD Q323A) was 3.5 ± 0.2 mM and the Kd (DC-SIGN CRD T314A) was 3.9 ± 0.1 mM. For the same compound, the Kd (DC-SIGN CRD W364F) was 5 ± 0.9 mM, the Kd (DC-SIGN CRD wildtype) was 3.3 ± 0.3 mM and the “hill slope, inhibition of HRP binding” value (DC-SIGN ECD T314A) was -2.1.

— PMC12933331, “A Cryptic Pocket Allosterically Modulates Oligosaccharide Binding to DC-SIGN” (JACS Au, 2026)
